# “Also recorded” adds a separate entry of the source.
# Assays:
# [1] = system: ampicillin-resistant E. coli; assay type: cell-based; conditions: no α-TSS (no treatment)
# Protocol: Three biological replicates were selected from colonies and pretreated for 16 hr with respective α-TSS concentration in liquid media. After pretreatment, the cultures were diluted 1:100,000 into liquid media with respective concentration of ampicillin and α-TSS and allowed to grow with shaking at 37° C. for 24 hr. The final OD at 562 nm at 24 hr was used for data analysis.
# Data fitting analysis was performed in Origin Pro 6.1. Data was fit to a sigmoidal/decay Boltzman function.
# The degree of re-sensitization exerted by α-TSS in presence of varying concentrations of ampicillin above and below the MIC determined for α-TSS was then evaluated.
# [2] = system: MDR Salmonella typhimurium; experiment: Growth of clinical strain MDR S. typhimurium; assay type: cell-based; conditions: 10 μM
# Protocol: (§1) MG1655 E. coli cultures were started from individual colonies from 2% LB and 1.5% agar into M9 media. They were diluted 1:10,000 from overnight culture into fresh M9 with respective treatment and grown at 37° C. with 225 rpm shaking. Clinical strains were started from individual colonies grown on cation adjusted Mueller Hinton Broth with 1.5% agar into liquid CAMHB. These were diluted 1:10,000 into CAMHB medium with respective treatment and grown at 37° C. with 225 rpm shaking. Optical density measurements were taking using a Tecan GENios at 562 nm with a bandwidth of 35 nm. Lag time was calculated using Growth Rates Made Easy (Hall et al. Mol. Biol. Evol. 31(1):232-238).
# (§2) MDR E. coli was inhibited by four of the six oligomers tested (α-folC, α-ffh, α-lexA, and α-rpsD), extended-spectrum beta-lactamase (ESBL) K. pneumoniae was inhibited by two of the antisense oligomers (α-fnrS and α-rpsD), and New Delhi metallo-β-lactamase (NDM-1) K. pneumoniae was inhibited by one of the oligomers tested (α-rpsD) (FIGS. 15-16).
# [3] = system: CRE E. coli; experiment: Growth of clinical strain CRE E. coli; assay type: cell-based, Escherichia coli; conditions: 10 μM
# Protocol: as §1, §2
# [4] = system: MG1655 E. coli; experiment: Growth (optical density, lag time) of MG1655; assay type: cell-based; conditions: 10 μM antisense inhibitor; for growth of MG1655 E. coli cultures: 24 h
# Protocol: as §1, with “31(1):232-238). […]” for “31(1):232-238).”
# [5] = system: MDR E. coli; experiment: Growth of clinical strain MDR E. coli; assay type: cell-based; conditions: 10 μM
# Protocol: as §1, §2
# [6] = system: MG1655 E. coli; experiment: Colony forming unit analysis of MG1655; assay type: cell-based; conditions: 10 μM, six and eight hours
# From the text: The effect of α-lexA, α-fnrS, and α-rpsD on cell viability using a colony forming unit analysis was then determine.
# [7] = system: ESBL K. pneumoniae; experiment: Growth of clinical strain ESBL K. pneumoniae; assay type: cell-based, Klebsiella pneumoniae; conditions: 10 μM
# Protocol: as §1, §2
# [8] = system: ampicillin-resistant E. coli; assay type: cell-based; conditions: for growth of drug-resistant E. coli in presence of ampicillin: antisense oligomer plus 300 μg/mL ampicillin
# Protocol: pAKgfp1 plasmid was obtained from Addgene for TEM-1 β-lactamase resistance gene, bla (43). The plasmid was cloned into chemically competent Zymo DH5a E. coli (Expressys). Untransformed Zymo DH5a was used as a control strain for β-lactamase activity assays. Liquid cultures were grown in 2% LB, incubated at 37° C. and shaken at 225 rpm. Solid cultures were grown on 2% LB broth, 1.5% agar at 37° C. Ampicillin sodium salt (Sigma Aldrich) was used for selection at a concentration of 300 μg/mL for MIC and CFU analysis. Optical density measurements were taken using a Tecan GENios at 562 nm with a bandwidth of 35 nm. All bacterial freezer stocks were stored in 40% glycerol at −80° C.
# [9] = system: bla mRNA; experiment: bla mRNA expression by qPCR; assay type: cell-based, E. coli; conditions: 5 μM α-TSS, 25 μM α-RBS, 25 μM α-YUNR; absence of ampicillin
# Protocol: Three biological replicates were used for bla expression analysis. Cultures were pretreated overnight in respective PNA and liquid media in the absence of ampicillin and collected for RNA at 16 hr.
# 50 μL of the respective culture was added to 100 μL of Bacteria RNAprotect (Qiagen) and incubated at room temperature for 5 min. The cells were then pelleted via centrifugation for 3 min at 10,000 rpm, the supernatant removed, and samples were flash frozen in an ethanol dry ice bath and stored at −80° C. Precautions were taken to protect RNA from RNases using RNaseZap (Life Technologies). RNA was extracted from frozen cell pellets using GeneJET RNA purification kit (Thermo Scientific) and 350-600 ng was treated with Turbo DNA-free (Ambion). 50 ng cDNA was synthesized using Maxima Universal First Stand cDNA synthesis kit (Thermo Scientific). 1.5 ng of cDNA was used for qPCR with Maxima SYBR Green qPCR master mix with ROX normalization (Thermo Scientific) using Illumina Eco qPCR system. Transcript levels were analyzed using the ΔCq method with respect to moderately expressed housekeeping gene cysG (43). Transcript levels were further analyzed for the mutant populations using the ΔΔCq method with respect to the no treatment populations.
# [10] = system: β-lactamase; conditions: 5 μM α-TSS, 25 μM α-RBS, 25 μM α-YUNR; absence of ampicillin
# Protocol: Fluorocillin™ Green 495/525 β-lactamase substrate soluble product (Life Technologies) was used at a concentration of 2.2 μM as a β-lactamase substrate and measured using a Tecan GENios microplate reader in black flat bottom 96 well plate at 485/535 nm with a bandwidth of 35 nm. Three biological replicates were grown from colonies for 12 hours liquid media in the presence of the respective antisense agents, diluted 1:10 into liquid media and Fluorocillin green, and monitored in the Tecan GENios for 5 hr at 37° C. measuring every 2 min. The slope of fluorescence measured was used as a measure of β-lactamase activity.
# Using quantitative real-time polymerase chain reaction (qPCR), expression levels of the bla gene in presence of the three antisense agents were measured. Studies were carried out with 5 μM α-TSS, 25 μM α-RBS, and 25 μM α-YUNR in the absence of ampicillin.
Molecule,growth inhibition of MDR S. typhimurium [2],growth inhibition of CRE E. coli [3],lag time [4],growth inhibition of MDR E. coli [5],further results
"CC1(C)S[C@@H]2[C@H](NC(=O)[C@H](N)c3ccccc3)C(=O)N2[C@H]1C(=O)O [ampicillin, Ampicillin, reference compound]",–,–,–,–,slope of the transition from resistant to sensitive (Boltzman fit) [1]: −0.0051 ODmLμg^−1; ampicillin concentration up to which growth is without inhibition ([1]; 24 hr): 300 µg/mL; ampicillin concentration where no growth was observed ([1]; 24 hr): 700 µg/mL
"KFFKFFKFFK -O-gctttcattccg (antisense GCTTTCATTCCG; all peptide nucleic acid (PNA); (KFF)3K cell-penetrating peptide joined to the N-terminus through an O-linker) [α-lexA, 12-mer antisense PNA centered on start codon of lexA, O-linker to (KFF)3K]",inhibited,inhibited,significantly increased lag time,inhibited,growth of MG1655 E. coli cultures [4]: completely inhibited; also recorded: completely prevented cell growth; also recorded: Complete inhibition; viable cells at six and eight hours [6]: prevented significant increase in viable cells; also recorded: prevents significant increases in viable MG1655 E. coli cells
"KFFKFFKFFK -O-taatcatggtat (antisense TAATCATGGTAT; all peptide nucleic acid (PNA); (KFF)3K cell-penetrating peptide joined to the N-terminus through an O-linker) [α-folC, 12-mer antisense PNA centered on start codon of folC, O-linker to (KFF)3K]",inhibited,inhibited,–,inhibited,–
"KFFKFFKFFK -O-tcaaacattgtc (antisense TCAAACATTGTC; all peptide nucleic acid (PNA); (KFF)3K cell-penetrating peptide joined to the N-terminus through an O-linker) [α-ffh, 12-mer antisense PNA centered on start codon of ffh, O-linker to (KFF)3K]",inhibited,inhibited,–,inhibited,–
KFFKFFKFFK-O-cacctgcaagag (antisense CACCTGCAAGAG; all peptide nucleic acid (PNA); (KFF)3K cell-penetrating peptide joined to the N-terminus through an O-linker) [α-fnrS],inhibited,inhibited,significantly increased lag time,–,growth inhibition of ESBL K. pneumoniae [7]: inhibited; growth of MG1655 E. coli cultures [4]: completely inhibited; also recorded: completely prevented cell growth; also recorded: Complete inhibition
"KFFKFFKFFK-O-cctttttcaata (antisense CCTTTTTCAATA; PNA, (KFF)3K peptide via O-linker, chemistry not fully specified) [α-RBS]",–,–,–,–,"re-sensitization of drug resistant E. coli to ampicillin [8]: re-sensitized drug resistant E. coli to ampicillin; also recorded: re-sensitization of drug resistant E. coli to ampicillin; also recorded: re-sensitize; growth in absence of ampicillin (toxicity of antisense agent) ([8]; absence of ampicillin): non-toxic effect; also recorded: No inhibition; growth of drug-resistant E. coli in presence of ampicillin [8]: hindered cell growth; also recorded: impact growth; also recorded: significant antibiotic effect; minimum inhibitory concentration (MIC) ([8]; in presence of 300 μg/mL ampicillin, after overnight pretreatment with antisense agent): 25 µM; bla mRNA expression [9]: did not affect bla transcript levels; also recorded: did not significantly reduce bla expression"
"KFFKFFKFFK-O-gaataagggcga (antisense GAATAAGGGCGA; PNA, (KFF)3K peptide via O-linker, chemistry not fully specified) [α-YUNR]",–,–,–,–,β-lactamase activity [10]: no impact on protein activity; growth of drug-resistant E. coli in presence of ampicillin [8]: no impact on cell growth
"KFFKFFKFFK-O-ttcgacatcaac (antisense TTCGACATCAAC; PNA, (KFF)3K peptide via O-linker, chemistry not fully specified) [α-gyrB, 12-mer antisense PNA centered on start codon of gyrB, O-linker to (KFF)3K]",inhibited,inhibited,significantly increased lag time,–,–

# From patent US20180002692A1, “Sequence Specific and Organism Specific Antimicrobials and Related Materials and Methods” (priority 2015, published 2018)
